Broadly, the melting point is the temperature, or range, at which the solid turns liquid.

Each structure is given as a SMILES string.

Compound `O=C1NC(=O)C(Cc2ccccc2Oc2ccccc2)S1` (stereo not shown) [Example 1, 5-(2-phenoxybenzyl)-1,3-thiazolidine-2,4-dione] yielded a melting point of 84 to 85 °C.

The values above are taken from patent US20070065472A1, “Benzyl-1,3-thiazolidine-2,4-dione compounds for stimulating or inducing the growth and/or for reducing the loss of keratin fibers” (L'OREAL, priority 2005, published 2007).
